Reference: PubChem BioAssay AID1973 (The Scripps Research Institute Molecular Screening Center, 2009)
Activity calls are given as the source filed them.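 The calls were made as follows: active = IC50 dose giving half inhibition of the KLF5 reporter of 10 micromolar or lower; inactive = IC50 above 10 micromolar.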

System: DLD-1 KLF5 promoter-luciferase reporter, luminescence
Assay: KLF5 promoter reporter inhibitors, dose response, luminescence, DLD-1 cells, luciferase reporter (AID 1973)

For `COC(=O)c1ccc(Oc2cc(C)nc(-n3nc(C)cc3C)n2)cc1`, the IC50 was 520 nM.
For `CCc1ccc(C(=O)Nc2nc3ccccc3[nH]2)cc1`, the IC50 was 2830 nM.
Molecule `Oc1ccc(N=Nc2ccccc2C(F)(F)F)c2cccnc12` has an IC50 of 1900 nM.
For `C[C@@H]1O[C@@H](O[C@H]2C[C@@H](O)[C@]3(CO)[C@H]4[C@H](O)C[C@]5(C)[C@@H](C6COC(=O)C6)CC[C@]5(O)[C@@H]4CC[C@]3(O)C2)[C@H](O)[C@H](O)[C@H]1O` (stereo partly specified), the IC50 was 3850 nM.
Molecule `C[C@]12CCC3C(CCC4=CC(O)CC[C@@]43/C=N/O)C1(O)CCC2C1=CC(=O)OC1` (stereo partly specified) has an IC50 of 2200 nM.
In the case of `COc1ccc(C(=O)N/N=C/c2cc(Br)ccc2O)cc1OC`, the IC50 is reported as 1560 nM.
Molecule `Cc1ccc(C(=O)Nc2cnc3ccccc3c2)cc1` has an IC50 of 735 nM.
`c1ccc(-c2noc(-c3ccc4ccccc4c3)n2)nc1` gave an IC50 of 798 nM.
Work on `CC(C)CC(NC(=O)CCCNC(=O)CCC(=O)OC1O[C@H]2OC3(C)CC[C@H]4[C@H](C)CCC(C1C)C24OO3)C(=O)O` (stereo partly specified) yielded an IC50 of 502 nM.
`O=C(N/N=C/c1c(O)ccc2ccccc12)c1cccnc1` was tested, and the IC50 was 1620 nM.
With `CN(C)c1ccc(/C=N/Nc2cccc(C(=O)O)c2)cc1` the IC50 was 617 nM.
Work on `O=C(O)CSCC(=O)Nc1ccc(C2CCCCC2)cc1` yielded an IC50 of 1290 nM.
`O=C(CSc1n[nH]c(-c2ccccn2)n1)Nc1ccc(Cl)cc1` was tested, and the IC50 was 4380 nM.
With `CNC1=C(N(C(C)=O)c2ccc(Br)cc2)C(=O)c2ccccc2C1=O` the IC50 was 1860 nM.
In the case of `Cc1cc(/C=N/Nc2nc(N)ncc2[N+](=O)[O-])c(C)n1-c1ccccc1F`, the IC50 is reported as 401 nM.
`O=C(CCCc1ccccc1)c1ccc2c(c1)OCCO2` was tested, and the IC50 was 1240 nM.
Work on `COc1ccc(OCc2cccc(C(=O)Nn3cc([N+](=O)[O-])cn3)c2)cc1` yielded an IC50 of 332 nM.
`COC(=O)c1ccc2nc(Nc3nc4ccc(F)cc4s3)sc2c1` showed an IC50 of 6.98 nM.
In the case of `O=C(N/N=C/c1c(O)ccc2ccccc12)c1ccc(Br)o1`, the IC50 is reported as 1780 nM.
Molecule `O=C(Nc1cccc(C(=O)O)c1)Nc1ccc2c(c1)OCO2` has an IC50 of 838 nM.
Work on `O=C(CN1C(=O)c2ccccc2S1(=O)=O)c1ccc(Cl)cc1Cl` yielded an IC50 of 1690 nM.
Molecule `O=C(O)c1cccc(COc2ccc3c(c2)CCC3)c1` has an IC50 of 695 nM.
In the case of `CCOC(=O)c1sc(NC(=O)c2cc3c(s2)CCC(C)C3)nc1C` (stereo unspecified), the IC50 is reported as 109 nM.
`CC1CCN(c2ccc(-c3cccs3)nn2)CC1` was tested, and the IC50 was 1260 nM.
With `COc1cccc(/C=N/Nc2ccc(C(=O)O)cc2)c1O` the IC50 was 43.1 nM.
`Clc1ccccc1/C=C/c1nc(-c2ccccn2)no1` showed an IC50 of 1540 nM.
Molecule `Cc1ccc(C(=O)O/N=C(\N)c2ccccn2)c(Cl)c1` has an IC50 of 2800 nM.
`O=C(N/N=C/c1cc(O)ccc1Br)c1cccnc1` gave an IC50 of 1710 nM.
With `CCNC(=S)NNC(=O)c1cc(-c2ccc(OCC)cc2)nc2ccccc12` the IC50 was 4170 nM.
Molecule `CC(C)(C)C(=O)Nc1cc2nn(-c3ccccc3)nc2cc1Cl` has an IC50 of 98.8 nM.
`NS(=O)(=O)c1ccc(N=Nc2ccc(O)c3ncccc23)cc1` gave an IC50 of 3180 nM.
In the case of `COc1cc(N=Cc2c(O)[nH]c3ccccc23)cc(OC)c1OC`, the IC50 is reported as 1030 nM.
`CC(C)(C)c1ccc(-c2noc(CCC(N)=O)n2)cc1` showed an IC50 of 133 nM.
Molecule `COc1ccc(/C=N/NC(=O)CCn2c3ccccc3c3ccccc32)cc1O` has an IC50 of 1850 nM.
`COc1cc(/C=C/[N+](=O)[O-])ccc1OCc1cccc(C(=O)O)c1` was tested, and the IC50 was 2070 nM.
For `CCc1ccn2cc(-c3cc(-c4ccccc4)no3)nc2c1`, the IC50 was 660 nM.
With `C#Cc1ccc([C@@H]2C=C(C(=O)N3CCN(Cc4ccccc4)CC3)O[C@H](OCCCCO)C2)cc1` the IC50 was 2720 nM.
Molecule `O=C(N/N=C/c1cccc(Oc2ccccc2)c1)c1ccccc1F` has an IC50 of 1240 nM.
Work on `COc1cccc(/C=N/Nc2ccc([N+](=O)[O-])cn2)c1O` yielded an IC50 of 4090 nM.
`CC(C)(C)c1ccc(-c2noc(CCC(=O)Nc3cccnc3)n2)cc1` was tested, and the IC50 was 104 nM.
Work on `Cc1nc2ccccn2c1-c1csc(Nc2cccc(O)c2)n1` yielded an IC50 of 395 nM.
In the case of `N/C(=N\OCc1ccc([N+](=O)[O-])cc1)c1ccccn1`, the IC50 is reported as 1050 nM.
Molecule `O=C(NCCc1ccccc1)c1ccc2c(c1)OCCCO2` has an IC50 of 421 nM.
With `CC(C)(C)c1ccc(C(=O)O/N=C(\N)c2ccccc2)cc1` the IC50 was 1750 nM.
`CC(C)Oc1ccc(C(=O)Nc2nc3ccccc3[nH]2)cc1` gave an IC50 of 1650 nM.
With `Oc1cccc2ccc(Nc3ccccn3)nc12` the IC50 was 2450 nM.
Work on `COc1cc(/C=N/O)ccc1OCc1ccc(C(=O)O)cc1` yielded an IC50 of 820 nM.
`COC(=O)c1nn(-c2ccc3c(c2)CCN3C(C)=O)cc1O` gave an IC50 of 2040 nM.
`COc1cccc(/C=N/Nc2nccnc2Cl)c1O` was tested, and the IC50 was 2080 nM.
In the case of `COc1cccc(/C=N/Nc2ncc(C(F)(F)F)cc2Cl)c1O`, the IC50 is reported as 562 nM.
`CC(C)(C)c1ccc(C(=O)O/N=C(\N)c2ccccn2)cc1` gave an IC50 of 270 nM.
`Cc1ccc(C(=O)N/N=C/c2cc(Br)ccc2O)cn1` showed an IC50 of 1910 nM.
`COc1ccc2[nH]c(C(=O)N/N=C/c3ccc(OC)c(O)c3)cc2c1` showed an IC50 of 5120 nM.
In the case of `O=C(N/N=C/c1cc(Cl)ccc1O)c1cccnc1`, the IC50 is reported as 1630 nM.
`COc1ccc2nc(SCC(=O)NC3CCCC3)c(C)cc2c1` gave an IC50 of 1360 nM.
For `COc1ccc(Cl)cc1C(=O)Nc1nc2ccccc2[nH]1`, the IC50 was 4030 nM.
For `Cc1ccc2[nH]c(C(=O)N/N=C/c3ccccc3O)c(C)c2c1`, the IC50 was > 39800 nM (inactive).
`CCCS(=O)(=O)c1cnc(C2COc3ccccc3O2)nc1N` (stereo unspecified) showed an IC50 of 1400 nM.
For `O=C(Nc1cccnc1)c1cccs1`, the IC50 was 950 nM.
For `O=C(Nc1nccs1)c1cc2c(s1)CCCCC2`, the IC50 was 2860 nM.
With `C[C@@H]1O[C@@H](O[C@H]2C[C@@H](O)[C@]3(CO)[C@H]4[C@H](O)C[C@]5(C)[C@@H](C6=CC(=O)OC6)CC[C@]5(O)[C@@H]4CC[C@]3(O)C2)[C@H](O)[C@H](O)[C@H]1O` the IC50 was 165 nM.
For `O=C1C(Nc2ccccc2)=C(N2CCCCC2)C(=O)c2ccccc21`, the IC50 was 13400 nM (inactive).
In the case of `O=C(O)c1ccc(N/N=C/c2c[nH]c3ccccc23)cc1`, the IC50 is reported as 1520 nM.
In the case of `C/C(=N\NC(=O)c1n[nH]c2c1CCC2)c1cccs1`, the IC50 is reported as 2430 nM.
`Cc1cc(C(=O)CN2C(=O)c3ccccc3S2(=O)=O)c(C)n1CC1CCCO1` (stereo unspecified) showed an IC50 of 267 nM.
For `O=C(Nc1nc2cc3c(cc2s1)OCCO3)c1ccco1`, the IC50 was 1550 nM.
`Cc1ccc2nc(NC(=O)CCCc3nc4ccccc4s3)sc2c1` showed an IC50 of 207 nM.
`Cc1ccc(C(=O)Nc2nc3ccccc3[nH]2)cc1` was tested, and the IC50 was 3530 nM.
`CC1CCN(Cc2c(C(=O)N/N=C/c3ccccc3O)nnn2-c2nonc2N)CC1` showed an IC50 of 1810 nM.
With `CCc1ccc(NC(=O)c2cnn3ccccc23)cc1` the IC50 was 1860 nM.
`Cc1cc(-c2ccccc2)n(-c2cc(N/N=C/c3ccccc3O)ncn2)n1` was tested, and the IC50 was 998 nM.
In the case of `CN(C)c1ccc(Nc2nc(N)c3ccccc3n2)cc1`, the IC50 is reported as 2520 nM.
For `CC(C)(C)C(=O)Nc1ccc(NC(=O)c2ccco2)nc1`, the IC50 was 960 nM.
With `O=C(NC1=NCCS1)C1COc2ccccc2O1` (stereo unspecified) the IC50 was 2630 nM.
`O=C(Nc1cccc(O)c1)c1cc(-c2ccc3c(c2)OCO3)on1` gave an IC50 of 2060 nM.
With `COc1ccc(-n2ncc3c(N4CCCCC4)ncnc32)cc1` the IC50 was 1360 nM.
In the case of `Nc1c(C(=O)Nc2cccc(C(=O)O)c2)sc2nc3c(cc12)CCCC3`, the IC50 is reported as 1470 nM.
In the case of `CN(CCO)c1ccc(/C=N/Nc2nncc3ccccc23)cc1`, the IC50 is reported as 1360 nM.
Work on `CN1CCN(c2ccc(-c3ccc4ccccc4n3)cc2)CC1` yielded an IC50 of 166 nM.
Molecule `COc1ccc(OC)c(N/C=C/C(=O)c2ccccc2)c1` has an IC50 of 1690 nM.
Molecule `COc1ccc(OC)c(Nc2cc(C)nc3nc(C)nn23)c1` has an IC50 of 486 nM.
`CCOc1cc(Br)cc(/C=N/NC(=O)c2cccnc2)c1O` showed an IC50 of 1660 nM.
With `CCCc1ccc(-c2ccc(/C=C/C(=O)O)cc2)nc1` the IC50 was 416 nM.
For `O=C(c1cc(-c2ccccc2Cl)on1)N1CCCC1`, the IC50 was 3480 nM.
In the case of `CCOC(=O)c1sc(NC(=O)c2sc(C)nc2C)nc1C`, the IC50 is reported as > 39800 nM (inactive).
`CN(C)c1ccc(/C=C/c2nc3ccccc3c(=O)[nH]2)cc1` was tested, and the IC50 was 1510 nM.
`CCN(CC)S(=O)(=O)c1cc(OC)ccc1N=Nc1ccc(O)c2ncccc12` showed an IC50 of 2030 nM.
`COc1ccccc1N1CCN(Cc2cc(Br)c(O)c3ncccc23)CC1` showed an IC50 of 2680 nM.
`Cc1ccc(-c2nnc(SCC(=O)Nc3ccccc3F)o2)cc1` showed an IC50 of 2500 nM.
`O=C(N/N=C/c1cc(Br)ccc1OC(=O)c1ccc(Br)cc1)c1ccncc1` gave an IC50 of 1540 nM.
`c1ccc(-c2ccc(-c3nc(-c4ccccn4)no3)cc2)cc1` showed an IC50 of 360 nM.
In the case of `CCN1C=CC(=C2C(=O)c3ccccc3C2=O)C=C1`, the IC50 is reported as 950 nM.
Work on `CN(C(=O)COC(=O)/C=C/c1cccc([N+](=O)[O-])c1)C1CCS(=O)(=O)C1` (stereo unspecified) yielded an IC50 of 518 nM.
Molecule `Cc1ccc(S(=O)(=O)Nc2cc(Cl)c(O)c3ncccc23)cc1` has an IC50 of 1820 nM.
Work on `O=C(Nc1ccc(N2CCCCC2)cc1)c1ccccn1` yielded an IC50 of 703 nM.
`CCc1ccn2cc(-c3ccc4c(c3)OCO4)nc2c1` gave an IC50 of 1900 nM.
Molecule `COc1ccc(N/N=C/c2c(C(=O)O)ccc3ccccc23)cc1` has an IC50 of 1690 nM.
For `O=C(NCCc1ccccc1)c1ccc2c(c1)OCCO2`, the IC50 was 1060 nM.
`COC(=O)c1c(N)sc(C(=O)NCCc2ccccc2)c1C` gave an IC50 of 1930 nM.
Work on `Cc1ccc(C(=O)O/N=C(\N)c2ccccn2)c(C)c1` yielded an IC50 of 1420 nM.
With `CC(C)(C)c1ccc(-c2noc(CCC(=O)NCC3CCCO3)n2)cc1` (stereo unspecified) the IC50 was 1810 nM.
Work on `COc1ccc(C(=O)Nc2nc3ccccc3s2)c(OC)c1` yielded an IC50 of 2340 nM.
`Nc1ccc(-c2nc3ccc(C(=O)O)cc3s2)cc1` showed an IC50 of 383 nM.
`Cc1ccc(C(=O)N/N=C/c2c(O)ccc3ccccc23)cn1` was tested, and the IC50 was 1490 nM.
Work on `O=C(NCCc1ccccc1F)c1ccc2c(c1)OCCO2` yielded an IC50 of 424 nM.
With `COC(=O)C1=C(CN2CCCc3ccccc32)NC(=O)NC1c1ccc(F)cc1` (stereo unspecified) the IC50 was 3050 nM.
Work on `Cc1cc(C(=O)COC(=O)c2ccccc2O)c(C)n1Cc1cccs1` yielded an IC50 of 563 nM.
With `CCCc1ccc(C(=O)O/N=C(\N)c2ccccn2)cc1` the IC50 was 107 nM.
Work on `Oc1cccc(/C=N/Nc2ccc(Cl)nn2)c1O` yielded an IC50 of 1900 nM.
Work on `CCOc1cccc(/C=N/NC(=O)c2ccc3c(c2)OCCO3)c1O` yielded an IC50 of 1650 nM.
For `COc1ccc(OC)c2[nH]c(C(=O)N/N=C/c3ccccc3O)cc12`, the IC50 was 1670 nM.
Work on `COc1cccc(/C=N/NC(=O)c2cc3c(OC)ccc(OC)c3[nH]2)c1O` yielded an IC50 of 2460 nM.
`CCCCN=C[C@]12CCC(O)CC1(O)CCC1[C@@H]2CC[C@]2(C)[C@H](C3C=CC(=O)O3)CCC12O` (stereo partly specified) was tested, and the IC50 was 2020 nM.
With `Cn1cccc1-c1cc(C(=O)N/N=C/c2cc(Br)ccc2O)[nH]n1` the IC50 was 1500 nM.
Work on `Cc1ccccc1OCC(=O)Nc1cccc(C(=O)O)c1` yielded an IC50 of 1240 nM.
Molecule `CC(C)(C)c1ccc(C(=O)Nc2sc3c(c2C(=O)O)CCC3)cc1` has an IC50 of 1160 nM.
